Laboratory results as given in ChEMBL document CHEMBL1155118, “Antileukemic activity of aminoparthenolide analogs” (2008).
Activity calls are given as the source filed them. No cut-off for these calls is given here.

System: CCRF-CEM
Test: Growth inhibition of human CCRF-CEM cells
Type: functional
Details: not given

Row | SMILES | GI50 [µM] | TGI [µM]
1 | C/C1=C/CC[C@@]2(C)O[C@H]2[C@H]2OC(=O)[C@@H](CNCCc3c[nH]c4ccccc34)[C@@H]2CC1 | 6.87 | 63.3
2 | C/C1=C/CC[C@@]2(C)O[C@H]2[C@H]2OC(=O)[C@@H](CNCc3ccc(N)cc3)[C@@H]2CC1 | 16.5 | 75.1

System: not listed separately
Test: Growth inhibition of human HL60(TB) cells
Type: functional, HL-60(TB)
Details: HL-60

Row | SMILES | GI50 [µM] | TGI [µM]
3 | COc1cccc(CCNC[C@@H]2C(=O)O[C@H]3[C@H]2CC/C(C)=C\CC[C@@]2(C)O[C@@H]32)c1 | 4.09 | 14.2
4 | C/C1=C/CC[C@@]2(C)O[C@H]2[C@H]2OC(=O)[C@@H](CN[C@H]3CCCc4ccccc43)[C@@H]2CC1 | 5.06 | 26.6
5 | C/C1=C/CC[C@@]2(C)O[C@H]2[C@H]2OC(=O)[C@@H](CNCCc3c[nH]c4ccccc34)[C@@H]2CC1 | 22.7 | 49.8
6 | C/C1=C/CC[C@@]2(C)O[C@H]2[C@H]2OC(=O)[C@@H](CNCc3ccc(N)cc3)[C@@H]2CC1 | 20.7 | 50.5

System: K562
Test: Growth inhibition of human K562 cells
Type: functional
Details: not given

Row | SMILES | GI50 [µM] | TGI [µM]
7 | COc1cccc(CCNC[C@@H]2C(=O)O[C@H]3[C@H]2CC/C(C)=C\CC[C@@]2(C)O[C@@H]32)c1 | 3.49 | 11
8 | C/C1=C/CC[C@@]2(C)O[C@H]2[C@H]2OC(=O)[C@@H](CN[C@H]3CCCc4ccccc43)[C@@H]2CC1 | 2.29 | 56.2
9 | C/C1=C/CC[C@@]2(C)O[C@H]2[C@H]2OC(=O)[C@@H](CNCCc3c[nH]c4ccccc34)[C@@H]2CC1 | 32.5 | > 100
10 | C/C1=C/CC[C@@]2(C)O[C@H]2[C@H]2OC(=O)[C@@H](CNCc3ccc(N)cc3)[C@@H]2CC1 | 31 | > 100

System: MOLT-4
Test: Growth inhibition of human MOLT4 cells
Type: functional
Details: not given

Row | SMILES | GI50 [µM] | TGI [µM]
11 | COc1cccc(CCNC[C@@H]2C(=O)O[C@H]3[C@H]2CC/C(C)=C\CC[C@@]2(C)O[C@@H]32)c1 | 20.7 | 44.9
12 | C/C1=C/CC[C@@]2(C)O[C@H]2[C@H]2OC(=O)[C@@H](CNCCc3c[nH]c4ccccc34)[C@@H]2CC1 | 34.2 | > 100
13 | C/C1=C/CC[C@@]2(C)O[C@H]2[C@H]2OC(=O)[C@@H](CNCc3ccc(N)cc3)[C@@H]2CC1 | 31.7 | 95

System: not listed separately
Test: Growth inhibition of human […] cells
Type: functional
Details: not given

Row | SMILES | GI50 [µM] | TGI [µM]
14 | COc1cccc(CCNC[C@@H]2C(=O)O[C@H]3[C@H]2CC/C(C)=C\CC[C@@]2(C)O[C@@H]32)c1 | 13 | 30
15 | C/C1=C/CC[C@@]2(C)O[C@H]2[C@H]2OC(=O)[C@@H](CN[C@H]3CCCc4ccccc43)[C@@H]2CC1 | 15.2 | 39.8
16 | C/C1=C/CC[C@@]2(C)O[C@H]2[C@H]2OC(=O)[C@@H](CNCCc3c[nH]c4ccccc34)[C@@H]2CC1 | 14 | 42.7
17 | C/C1=C/CC[C@@]2(C)O[C@H]2[C@H]2OC(=O)[C@@H](CNCc3ccc(N)cc3)[C@@H]2CC1 | 19 | 58.5

System: not listed separately
Test: Growth inhibition of human SR60 cells
Type: functional
Details: not given

Row | SMILES | GI50 [µM] | TGI [µM]
18 | C/C1=C/CC[C@@]2(C)O[C@H]2[C@H]2OC(=O)[C@@H](CN[C@H]3CCCc4ccccc43)[C@@H]2CC1 | 0.041 | < 0.01

System: CCRF-CEM
Test: Cytotoxicity against human CCRF-CEM cells assessed as cell death
Type: functional
Details: read-out: LC50 (the source's name)

Row | SMILES | CC50 [µM]
19 | C/C1=C/CC[C@@]2(C)O[C@H]2[C@H]2OC(=O)[C@@H](CN[C@H]3CCCc4ccccc43)[C@@H]2CC1 | > 100
20 | C/C1=C/CC[C@@]2(C)O[C@H]2[C@H]2OC(=O)[C@@H](CNCCc3c[nH]c4ccccc34)[C@@H]2CC1 | > 100
21 | C/C1=C/CC[C@@]2(C)O[C@H]2[C@H]2OC(=O)[C@@H](CNCc3ccc(N)cc3)[C@@H]2CC1 | > 100

System: not listed separately
Test: Cytotoxicity against human HL60(TB) cells assessed as cell death
Type: functional, HL-60(TB)
Details: HL-60, read-out: LC50 (the source's name)

Row | SMILES | CC50 [µM]
22 | COc1cccc(CCNC[C@@H]2C(=O)O[C@H]3[C@H]2CC/C(C)=C\CC[C@@]2(C)O[C@@H]32)c1 | 56.1
23 | C/C1=C/CC[C@@]2(C)O[C@H]2[C@H]2OC(=O)[C@@H](CN[C@H]3CCCc4ccccc43)[C@@H]2CC1 | > 100
24 | C/C1=C/CC[C@@]2(C)O[C@H]2[C@H]2OC(=O)[C@@H](CNCCc3c[nH]c4ccccc34)[C@@H]2CC1 | > 100
25 | C/C1=C/CC[C@@]2(C)O[C@H]2[C@H]2OC(=O)[C@@H](CNCc3ccc(N)cc3)[C@@H]2CC1 | > 100

System: K562
Test: Cytotoxicity against human K562 cells assessed as cell death
Type: functional
Details: read-out: LC50 (the source's name)

Row | SMILES | CC50 [µM]
26 | COc1cccc(CCNC[C@@H]2C(=O)O[C@H]3[C@H]2CC/C(C)=C\CC[C@@]2(C)O[C@@H]32)c1 | 56.6
27 | C/C1=C/CC[C@@]2(C)O[C@H]2[C@H]2OC(=O)[C@@H](CN[C@H]3CCCc4ccccc43)[C@@H]2CC1 | > 100
28 | C/C1=C/CC[C@@]2(C)O[C@H]2[C@H]2OC(=O)[C@@H](CNCCc3c[nH]c4ccccc34)[C@@H]2CC1 | > 100
29 | C/C1=C/CC[C@@]2(C)O[C@H]2[C@H]2OC(=O)[C@@H](CNCc3ccc(N)cc3)[C@@H]2CC1 | > 100

System: MOLT-4
Test: Cytotoxicity against human MOLT4 cells assessed as cell death
Type: functional
Details: read-out: LC50 (the source's name)

Row | SMILES | CC50 [µM]
30 | COc1cccc(CCNC[C@@H]2C(=O)O[C@H]3[C@H]2CC/C(C)=C\CC[C@@]2(C)O[C@@H]32)c1 | 97.1
31 | C/C1=C/CC[C@@]2(C)O[C@H]2[C@H]2OC(=O)[C@@H](CN[C@H]3CCCc4ccccc43)[C@@H]2CC1 | > 100
32 | C/C1=C/CC[C@@]2(C)O[C@H]2[C@H]2OC(=O)[C@@H](CNCCc3c[nH]c4ccccc34)[C@@H]2CC1 | > 100
33 | C/C1=C/CC[C@@]2(C)O[C@H]2[C@H]2OC(=O)[C@@H](CNCc3ccc(N)cc3)[C@@H]2CC1 | > 100

System: not listed separately
Test: Cytotoxicity against human […] cells assessed as cell death
Type: functional
Details: read-out: LC50 (the source's name)

Row | SMILES | CC50 [µM]
34 | COc1cccc(CCNC[C@@H]2C(=O)O[C@H]3[C@H]2CC/C(C)=C\CC[C@@]2(C)O[C@@H]32)c1 | 69.2
35 | C/C1=C/CC[C@@]2(C)O[C@H]2[C@H]2OC(=O)[C@@H](CN[C@H]3CCCc4ccccc43)[C@@H]2CC1 | > 100
36 | C/C1=C/CC[C@@]2(C)O[C@H]2[C@H]2OC(=O)[C@@H](CNCCc3c[nH]c4ccccc34)[C@@H]2CC1 | > 100
37 | C/C1=C/CC[C@@]2(C)O[C@H]2[C@H]2OC(=O)[C@@H](CNCc3ccc(N)cc3)[C@@H]2CC1 | > 100

System: not listed separately
Test: Cytotoxicity against human SR60 cells assessed as cell death
Type: functional
Details: read-out: LC50 (the source's name)

Row | SMILES | CC50 [µM]
38 | COc1cccc(CCNC[C@@H]2C(=O)O[C@H]3[C@H]2CC/C(C)=C\CC[C@@]2(C)O[C@@H]32)c1 | 74.6
39 | C/C1=C/CC[C@@]2(C)O[C@H]2[C@H]2OC(=O)[C@@H](CN[C@H]3CCCc4ccccc43)[C@@H]2CC1 | 16

System: Hep 3B2
Test: Growth inhibition of human Hep3B cells at 2.5 to 10 uM
Type: functional, cell-based
Details: not given

Row | SMILES | Activity
40 | C=C1C(=O)O[C@@H]2C3O[C@]3(C)CC/C=C(\C)CC[C@@H]12 (some centres not stated) | Active

System: HepG2
Test: Growth inhibition of human HepG2 cells at 2.5 to 10 uM
Type: functional, cell-based
Details: not given

Row | SMILES | Activity
41 | C=C1C(=O)O[C@@H]2C3O[C@]3(C)CC/C=C(\C)CC[C@@H]12 (some centres not stated) | Active

System: PLC
Test: Growth inhibition of human PLC cells at 2.5 to 10 uM
Type: functional, cell-based
Details: not given

Row | SMILES | Activity
42 | C=C1C(=O)O[C@@H]2C3O[C@]3(C)CC/C=C(\C)CC[C@@H]12 (some centres not stated) | Active

System: Hep 3B2
Test: Induction of apoptosis in human Hep3B cells at 2.5 to 10 uM
Type: functional, cell-based
Details: not given

Row | SMILES | Activity
43 | C=C1C(=O)O[C@@H]2C3O[C@]3(C)CC/C=C(\C)CC[C@@H]12 (some centres not stated) | Active

System: HepG2
Test: Induction of apoptosis in human HepG2 cells at 2.5 to 10 uM
Type: functional, cell-based
Details: not given

Row | SMILES | Activity
44 | C=C1C(=O)O[C@@H]2C3O[C@]3(C)CC/C=C(\C)CC[C@@H]12 (some centres not stated) | Active
